Measured values from patent US20250099420A1, “SMALL MOLECULE MODULATORS OF GPR139 COMPLEX” (University of Florida Research Foundation, Incorporated, priority 2022, published 2025).
Where two headings read alike, the source gives them in different places.

Legend:
parental HEK cells = test: HEK parental Agonist Counterscreen Assay (non-transfected cells); assay type: cell-based; conditions: for Averaged Max % Response (±St. Dev.): activity relative to known control
From the text: The high control for the agonist counterscreen was Forskolin not acetylcholine.

GPR139 = target: T1, GPR139 (Homo sapiens, UniProt Q6DWJ6); test: GPR139 Agonist titration / agonist counterscreen assay (calcium detection, HEK-GPR139 cells); assay type: cell-based; parameters: expressed in transfected cells; host or cells: HEK Aequorin cells, Maxcyte transient transfection; conditions: GPR139 Agonist Activity; for EC50: read-out: EC50; for Averaged Max % Response (±St. Dev.): activity relative to known control
T1 sequence (Q6DWJ6 1-353): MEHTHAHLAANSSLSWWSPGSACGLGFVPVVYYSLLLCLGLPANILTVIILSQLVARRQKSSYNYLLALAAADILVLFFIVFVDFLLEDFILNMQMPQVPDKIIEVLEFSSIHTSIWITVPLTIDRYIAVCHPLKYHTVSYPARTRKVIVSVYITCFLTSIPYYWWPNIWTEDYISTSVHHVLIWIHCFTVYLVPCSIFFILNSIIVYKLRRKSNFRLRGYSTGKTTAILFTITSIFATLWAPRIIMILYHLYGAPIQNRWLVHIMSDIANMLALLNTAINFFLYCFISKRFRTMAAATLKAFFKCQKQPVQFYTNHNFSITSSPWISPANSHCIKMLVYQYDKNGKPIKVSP
Procedure: GPR activity was assessed using a calcium detection assay. […] Negative control samples were treated with DMSO. […] Intracellular calcium was measured using Calcium 5.

[1] = Homo sapiens, HEK293, HEK Agonist Activity section of Table 4 (parental HEK counterscreen)
[2] = values printed in E-notation without unit
[3] = Homo sapiens, HEK293, HEK Agonist Activity, parental non-transfected HEK cells
[4] = HEK Agonist Activity section of Table 4 (parental HEK counterscreen)

SMILES	Lipophilic Efficiency (logD) (parental HEK cells; HEK Agonist Activity section)	Lipophilic Efficiency (logP) (parental HEK cells; HEK Agonist Activity section)	Averaged Max % Response (±St. Dev.) (parental HEK cells; HEK Agonist Activity section)	EC50 (parental HEK cells; [1])	Efficiency Ligand (GPR139)	Hill Slope (GPR139)	Lipophilic Efficiency (logD) (GPR139)	Lipophilic Efficiency (logP) (GPR139)	EC50 (GPR139; HEK-GPR139 cells)	Averaged Max % Response (±St. Dev.) (GPR139)	Lipophilic Efficiency (logD) (GPR139; based on logD)	Lipophilic Efficiency (logP) (GPR139; based on logP)	Hill Slope (GPR139; fitted dose-response curve)	Efficiency Ligand (GPR139; ligand efficiency)	EC50 (GPR139; [2])	Lipophilic Efficiency (logD) (parental HEK cells; HEK Agonist Activity)	Lipophilic Efficiency (logP) (parental HEK cells; HEK Agonist Activity)	Averaged Max % Response (±St. Dev.) (parental HEK cells; HEK Agonist Activity)	EC50 (parental HEK cells; [3])	EC50 (parental HEK cells; [4])
CC(=O)N1CCSc2cc(S(=O)(=O)NC3CCC(C)CC3)ccc21 (stereo not drawn) [SR-01000141798]	2.66	2.66	2.60 ± 1.15%	> 14100 nM	0.31	0.65	3.15	3.15	4600 nM	62.31 ± 7.50%										
CC(C(=O)NCCC1=CCCCC1)n1c(=O)c2cccn2c2ccccc21 (stereo not drawn) [SR-01000142419]	2.10	2.10	−9.79 ± 12.86%	> 14100 nM						123.62 ± 30.65%	4.22	4.22	0.32	0.36	106 nM					
O=C(CC(C(=O)N1CCc2ccccc21)n1ccnc1)NCC1COc2ccccc2O1 (stereo not drawn) [SR-01000144615]										108.00 ± 3.42%	6.43	6.38	4.63	0.35	10.3 nM	3.29	3.24	−9.40 ± 4.48%	> 14100 nM	
O=C(CC(C(=O)N1CCc2ccccc21)n1ccnc1)N1CCCCCC1 (stereo not drawn) [SR-01000144627]	3.15	3.09	28.51 ± 2.67%	> 14100 nM						93.44 ± 12.43%	4.94	4.88	1.08	0.34	229 nM					
O=C(CN1N=C(c2ccc(Cl)cc2)CCC1=O)NCCN1CCc2ccccc2C1 [SR-01000145135]	2.82	2.34	−17.80 ± 4.24%		0.30	0.84	4.49	4.01	301 nM	81.84 ± 7.77%										> 14100 nM
Cc1ccc(CCNC(=O)Cn2nc(-c3ccccc3)ccc2=O)cc1 [SR-01000145157]	1.85	1.85	17.61 ± 4.99%							83.58 ± 17.45%	3.85	3.85	0.58	0.37	140 nM					> 14100 nM
Cc1ccccc1CS(=O)(=O)CCC(=O)NC(C)c1ccccc1 (stereo not drawn) [SR-01000145393]	2.34	2.34	10.41 ± 2.89%	> 14100 nM						97.82 ± 12.25%	4.42	4.42	0.70	0.40	116 nM					
Cc1ccc(CNC(=O)Cn2nc(-c3ccc(C)cc3)ccc2=O)cc1 [SR-01000145456]	1.62	1.62	−11.57 ± 15.53%	> 14100 nM	0.32	1.42	2.66	2.66	1300 nM	88.21 ± 16.68%										
CCCCC(O)CCNC(=O)C1CC(=O)N(CCc2ccc(C)cc2)C1 (stereo not drawn) [SR-01000145701]	4.13	2.54	10.54 ± 1.83%	> 14100 nM	0.34	0.99	5.67	4.07	414 nM	114.02 ± 14.51%										
COc1ccc(C2=NN(CC(=O)NCCCN(C)c3ccccc3)C(=O)CC2)cc1 [SR-01000145949]										122.18 ± 22.07%	5.74	5.73	1.04	0.36	21.5 nM	2.92	2.92	2.57 ± 15.21%	> 14100 nM	
CN(C)c1ccc(NC(=O)Cn2cc(C=O)c3ccccc32)cc1 [SR-01000146281]	1.82	1.82	8.26 ± 4.28%		0.37	1.64	3.32	3.32	449 nM	89.20 ± 13.55%										> 14100 nM
CC1CCCC(NC(=O)CN2CCCN(Cc3ccc(F)cc3Cl)C2=O)C1C (stereo not drawn) [SR-01000146420]										113.46 ± 20.46%	4.29	4.29	1.05	0.38	29.6 nM	1.61	1.61	20.27 ± 3.59%	> 14100 nM	
O=C(CN1CCCN(Cc2ccc(F)cc2Cl)C1=O)NC1CCCCCC1 [SR-01000146442]										108.38 ± 13.78%	4.80	4.80	0.79	0.41	14.9 nM	1.82	1.82	−6.48 ± 10.66%	> 14100 nM	
Cc1ccc(CN2CCCN(CC(=O)NC3CCCCCCC3)C2=O)c(Cl)c1 [SR-01000146444]	1.38	1.38	20.98 ± 2.11%	> 14100 nM						112.24 ± 16.06%	3.54	3.54	0.93	0.35						
O=C(CN1CCCN(Cc2ccc(F)cc2Cl)C1=O)NC1CCCC1 [SR-01000146446]	2.71	2.71	−2.89 ± 4.65%		0.37	0.77	4.40	4.40	289 nM	113.08 ± 17.13%										> 14100 nM
O=C(CN1CCCN(Cc2ccc(F)cc2Cl)C1=O)NC1CCCCC1 [SR-01000146448]	2.27	2.27	10.11 ± 11.28%		0.35	0.92	3.97	3.97	281 nM	112.56 ± 16.12%										> 14100 nM
